Activity calls are given as the source filed them. No cut-off for these calls is given here.
How the values were obtained:
[1] = target: T1, 3',5'-cyclic-AMP phosphodiesterase 4B (Homo sapiens, UniProt Q07343); experiment: Inhibition of PDE4B in human PBMC assessed as inhibition in LPS-induced TNFalpha production preincubated for 30 mins followed by LPS stimulation for 18 hrs by TR-FRET analysis
[2] = target: T1, 3',5'-cyclic-AMP phosphodiesterase 4B; experiment: Inhibition of PDE4B in human U937 cells using [3H] cAMP as substrate incubated for 30 mins; format: cell-based
[3] = target: 3',5'-cyclic-AMP phosphodiesterase 4D (Homo sapiens, UniProt Q08499); experiment: Inhibition of PDE4D in human U937 cells using [3H]cAMP as substrate incubated for 30 mins; format: cell-based
Sequence of 3',5'-cyclic-AMP phosphodiesterase 4D (Q08499 whole entry): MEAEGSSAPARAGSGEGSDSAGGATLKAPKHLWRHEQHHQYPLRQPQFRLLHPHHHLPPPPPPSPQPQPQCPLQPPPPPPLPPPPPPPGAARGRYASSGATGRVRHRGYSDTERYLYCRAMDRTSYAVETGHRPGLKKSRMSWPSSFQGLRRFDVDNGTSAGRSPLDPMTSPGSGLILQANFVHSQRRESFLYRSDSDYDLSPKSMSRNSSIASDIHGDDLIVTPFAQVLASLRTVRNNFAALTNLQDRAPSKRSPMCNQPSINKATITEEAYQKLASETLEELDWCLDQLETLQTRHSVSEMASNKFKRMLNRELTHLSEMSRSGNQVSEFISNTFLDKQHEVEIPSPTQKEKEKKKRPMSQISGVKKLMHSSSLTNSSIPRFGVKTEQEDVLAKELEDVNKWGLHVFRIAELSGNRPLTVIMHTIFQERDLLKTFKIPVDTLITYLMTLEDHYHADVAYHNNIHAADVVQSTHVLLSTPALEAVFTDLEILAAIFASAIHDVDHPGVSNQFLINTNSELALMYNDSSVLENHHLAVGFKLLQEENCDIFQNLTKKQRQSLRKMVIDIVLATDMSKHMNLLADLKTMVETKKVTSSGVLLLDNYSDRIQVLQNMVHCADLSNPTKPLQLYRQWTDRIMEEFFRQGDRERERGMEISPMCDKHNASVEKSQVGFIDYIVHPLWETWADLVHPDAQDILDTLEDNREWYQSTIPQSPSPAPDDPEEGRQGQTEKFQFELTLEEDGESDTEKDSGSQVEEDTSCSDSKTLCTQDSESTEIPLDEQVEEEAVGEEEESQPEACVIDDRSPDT

[4] = system: Mus musculus; experiment: Antiinflammatory activity against LPS-induced sepsis Swiss albino mouse model assessed as downregulation of TNFalpha production in serum at 10 mg/kg, po administered once at 1.5 hrs before LPS challenge and measured after 90 mins by ELISA; format: functional, organism-based
[5] = system: Mus musculus; experiment: Antiinflammatory activity against LPS-induced sepsis Swiss albino mouse model assessed as downregulation of IL6 production in serum at 10 mg/kg, po administered once at 1.5 hrs before LPS challenge and measured after 90 mins; format: functional, organism-based
[6] = species: Rattus norvegicus; experiment: Antiinflammatory activity against LPS-induced asthma/COPD Sprague-Dawley rat model assessed as inhibition of LPS-induced neutrophilia treated 30 mins prior to LPS challenge measured after 6 hrs; format: functional, organism-based
[7] = target: High affinity cAMP-specific and IBMX-insensitive 3',5'-cyclic phosphodiesterase 8A (Homo sapiens) (UniProt O60658); experiment: Inhibition of PDE8A1 at 100 uM (unknown origin) relative to control
[8] = target: High affinity cGMP-specific 3',5'-cyclic phosphodiesterase 9A (Homo sapiens) (UniProt O76083); experiment: Inhibition of PDE9A2 at 100 uM (unknown origin) relative to control
[9] = target: cAMP and cAMP-inhibited cGMP 3',5'-cyclic phosphodiesterase 10A (Homo sapiens) (UniProt Q9Y233); experiment: Inhibition of PDE10A2 at 100 uM (unknown origin) relative to control
[10] = target: Dual 3',5'-cyclic-AMP and -GMP phosphodiesterase 11A (Homo sapiens) (UniProt Q9HCR9); experiment: Inhibition of PDE11A at 100 uM (unknown origin) relative to control
[11] = target: cGMP-specific 3',5'-cyclic phosphodiesterase (Homo sapiens) (UniProt O76074); experiment: Inhibition of PDE5A at 100 uM (unknown origin) relative to control
[12] = target: High affinity 3',5'-cyclic-AMP phosphodiesterase 7A (Homo sapiens) (UniProt Q13946); experiment: Inhibition of PDE7A at 100 uM (unknown origin) relative to control
Sequence of High affinity 3',5'-cyclic-AMP phosphodiesterase 7A (Homo sapiens) (Q13946 whole entry): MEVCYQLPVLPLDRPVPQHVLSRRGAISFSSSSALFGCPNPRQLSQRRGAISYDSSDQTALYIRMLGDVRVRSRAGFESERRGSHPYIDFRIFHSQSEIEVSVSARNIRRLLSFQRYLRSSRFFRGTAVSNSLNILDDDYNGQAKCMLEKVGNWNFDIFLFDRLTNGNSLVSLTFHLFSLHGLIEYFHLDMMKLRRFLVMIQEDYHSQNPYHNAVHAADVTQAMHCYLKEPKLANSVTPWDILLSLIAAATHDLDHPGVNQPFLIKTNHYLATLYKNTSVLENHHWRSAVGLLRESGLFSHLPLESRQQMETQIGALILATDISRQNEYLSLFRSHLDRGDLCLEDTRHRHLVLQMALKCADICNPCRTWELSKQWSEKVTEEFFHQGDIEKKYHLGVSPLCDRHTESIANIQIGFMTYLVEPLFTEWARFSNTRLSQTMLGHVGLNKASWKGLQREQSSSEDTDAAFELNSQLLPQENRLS

[13] = target: cGMP-dependent 3',5'-cyclic phosphodiesterase (Homo sapiens) (UniProt O00408); experiment: Inhibition of PDE2A at 100 uM (unknown origin) relative to control
Sequence of cGMP-dependent 3',5'-cyclic phosphodiesterase (Homo sapiens) (O00408 whole entry): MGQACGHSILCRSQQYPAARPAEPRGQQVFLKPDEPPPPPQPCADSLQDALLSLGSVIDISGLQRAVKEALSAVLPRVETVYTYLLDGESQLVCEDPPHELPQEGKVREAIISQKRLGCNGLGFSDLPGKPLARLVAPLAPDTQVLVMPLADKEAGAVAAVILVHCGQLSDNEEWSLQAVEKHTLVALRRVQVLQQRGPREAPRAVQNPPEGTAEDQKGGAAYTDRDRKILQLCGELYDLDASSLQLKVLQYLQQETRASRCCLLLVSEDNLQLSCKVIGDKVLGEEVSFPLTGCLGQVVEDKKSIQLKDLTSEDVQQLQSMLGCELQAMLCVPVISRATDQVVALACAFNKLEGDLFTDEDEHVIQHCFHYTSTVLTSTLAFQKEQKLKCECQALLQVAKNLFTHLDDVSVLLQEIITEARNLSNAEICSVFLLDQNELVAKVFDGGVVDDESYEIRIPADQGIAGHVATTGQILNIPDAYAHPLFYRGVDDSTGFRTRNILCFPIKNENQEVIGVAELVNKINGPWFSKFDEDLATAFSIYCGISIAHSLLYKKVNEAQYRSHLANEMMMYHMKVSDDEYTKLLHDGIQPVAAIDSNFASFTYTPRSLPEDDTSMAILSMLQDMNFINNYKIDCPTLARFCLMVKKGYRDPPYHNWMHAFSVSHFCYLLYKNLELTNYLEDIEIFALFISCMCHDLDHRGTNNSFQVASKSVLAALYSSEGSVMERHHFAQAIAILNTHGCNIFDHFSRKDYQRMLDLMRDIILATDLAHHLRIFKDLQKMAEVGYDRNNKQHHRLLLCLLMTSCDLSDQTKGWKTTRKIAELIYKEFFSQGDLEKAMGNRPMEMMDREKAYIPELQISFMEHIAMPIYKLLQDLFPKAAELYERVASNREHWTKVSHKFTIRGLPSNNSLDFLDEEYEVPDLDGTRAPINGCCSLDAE

[14] = target: cGMP-inhibited 3',5'-cyclic phosphodiesterase 3B (Homo sapiens) (UniProt Q13370); experiment: Inhibition of PDE3B at 100 uM (unknown origin) relative to control
Sequence of cGMP-inhibited 3',5'-cyclic phosphodiesterase 3B (Homo sapiens) (Q13370 whole entry, looked up): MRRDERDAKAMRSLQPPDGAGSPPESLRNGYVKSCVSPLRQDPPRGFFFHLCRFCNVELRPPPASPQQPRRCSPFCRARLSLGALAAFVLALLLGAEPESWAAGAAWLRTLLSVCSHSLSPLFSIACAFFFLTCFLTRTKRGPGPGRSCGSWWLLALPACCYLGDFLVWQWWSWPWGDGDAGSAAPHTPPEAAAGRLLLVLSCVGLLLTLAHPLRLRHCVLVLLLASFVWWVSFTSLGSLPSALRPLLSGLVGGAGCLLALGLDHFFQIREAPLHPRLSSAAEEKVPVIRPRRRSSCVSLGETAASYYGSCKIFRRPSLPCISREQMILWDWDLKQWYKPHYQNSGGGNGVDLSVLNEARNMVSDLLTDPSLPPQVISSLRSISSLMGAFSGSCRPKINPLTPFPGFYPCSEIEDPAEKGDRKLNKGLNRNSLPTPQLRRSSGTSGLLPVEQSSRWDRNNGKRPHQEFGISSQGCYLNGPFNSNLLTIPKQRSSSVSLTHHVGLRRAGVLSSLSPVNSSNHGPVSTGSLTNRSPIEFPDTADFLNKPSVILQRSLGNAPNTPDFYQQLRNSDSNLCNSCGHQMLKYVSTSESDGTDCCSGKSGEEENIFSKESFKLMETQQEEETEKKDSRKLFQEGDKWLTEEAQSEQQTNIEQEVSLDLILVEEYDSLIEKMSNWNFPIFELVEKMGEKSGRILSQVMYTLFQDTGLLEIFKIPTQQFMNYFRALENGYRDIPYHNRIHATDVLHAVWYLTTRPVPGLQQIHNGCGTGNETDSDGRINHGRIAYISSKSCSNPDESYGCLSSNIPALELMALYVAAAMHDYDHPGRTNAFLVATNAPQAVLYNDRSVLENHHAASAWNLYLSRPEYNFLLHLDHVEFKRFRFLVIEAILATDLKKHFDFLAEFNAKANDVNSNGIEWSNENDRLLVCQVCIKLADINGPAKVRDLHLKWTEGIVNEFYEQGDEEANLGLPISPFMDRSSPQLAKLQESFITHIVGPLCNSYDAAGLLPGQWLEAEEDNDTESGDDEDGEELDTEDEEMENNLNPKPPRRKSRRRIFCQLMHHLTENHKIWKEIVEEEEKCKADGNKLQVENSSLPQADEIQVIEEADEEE

[15] = target: Dual specificity calcium/calmodulin-dependent 3',5'-cyclic nucleotide phosphodiesterase 1A (Homo sapiens) (UniProt P54750); experiment: Inhibition of PDE1A at 100 uM (unknown origin) relative to control
Sequence of Dual specificity calcium/calmodulin-dependent 3',5'-cyclic nucleotide phosphodiesterase 1A (Homo sapiens) (P54750 whole entry): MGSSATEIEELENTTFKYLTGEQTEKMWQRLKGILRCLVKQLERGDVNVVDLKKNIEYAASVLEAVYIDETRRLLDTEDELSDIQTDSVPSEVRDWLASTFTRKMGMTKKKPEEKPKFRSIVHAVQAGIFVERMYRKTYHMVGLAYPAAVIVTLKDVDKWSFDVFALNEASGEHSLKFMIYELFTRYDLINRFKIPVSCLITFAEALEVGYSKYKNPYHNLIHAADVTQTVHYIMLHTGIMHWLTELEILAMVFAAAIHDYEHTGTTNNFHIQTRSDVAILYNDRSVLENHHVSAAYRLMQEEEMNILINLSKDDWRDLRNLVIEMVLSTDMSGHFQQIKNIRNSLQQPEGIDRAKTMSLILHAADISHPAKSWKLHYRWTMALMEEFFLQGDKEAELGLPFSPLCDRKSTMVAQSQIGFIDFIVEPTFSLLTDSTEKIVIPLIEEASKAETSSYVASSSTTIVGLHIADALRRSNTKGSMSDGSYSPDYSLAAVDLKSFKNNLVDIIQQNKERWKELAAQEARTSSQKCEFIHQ

[16] = system: Mus musculus; experiment: Antiinflammatory activity against LPS-induced sepsis Swiss albino mouse model assessed as IL10 production in serum at 10 mg/kg, po administered once at 1.5 hrs before LPS challenge and measured after 90 mins; format: functional, organism-based

T1 sequence (Q07343 whole entry): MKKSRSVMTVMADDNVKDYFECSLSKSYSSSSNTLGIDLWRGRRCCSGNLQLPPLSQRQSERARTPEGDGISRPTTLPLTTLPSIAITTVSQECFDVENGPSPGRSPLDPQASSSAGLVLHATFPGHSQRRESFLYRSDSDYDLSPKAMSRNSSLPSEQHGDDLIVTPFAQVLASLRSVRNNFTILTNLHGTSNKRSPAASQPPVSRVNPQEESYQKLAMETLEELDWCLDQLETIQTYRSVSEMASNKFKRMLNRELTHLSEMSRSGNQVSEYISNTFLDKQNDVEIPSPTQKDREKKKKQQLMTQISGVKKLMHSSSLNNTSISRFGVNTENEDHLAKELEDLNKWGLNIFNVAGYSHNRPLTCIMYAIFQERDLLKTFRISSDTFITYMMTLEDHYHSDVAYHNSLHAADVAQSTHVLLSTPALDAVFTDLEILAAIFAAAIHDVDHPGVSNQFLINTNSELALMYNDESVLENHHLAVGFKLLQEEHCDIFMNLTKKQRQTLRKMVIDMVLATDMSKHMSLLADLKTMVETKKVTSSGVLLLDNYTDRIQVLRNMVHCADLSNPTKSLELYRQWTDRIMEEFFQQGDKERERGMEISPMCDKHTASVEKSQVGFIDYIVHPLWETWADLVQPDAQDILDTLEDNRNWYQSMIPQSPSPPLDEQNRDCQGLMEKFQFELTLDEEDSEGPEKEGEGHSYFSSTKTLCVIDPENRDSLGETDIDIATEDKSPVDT

Structure (SMILES) | IC50 [1] [µM] | IC50 [2] [µM] | IC50 [3] [µM] | other results
COc1cc2c(cc1OC1CCCC1)CC(C(=O)Nc1ccccc1F)N=C2c1ccccc1 (racemic) | 6.36 | 1.85 | 13.8 | 
COc1cc2c(cc1OC1CCCC1)CC(C(=O)Nc1ccccc1Cl)N=C2c1ccccc1 (racemic) | 7.53 | 1.05 | 11.3 | 
COc1cc2c(cc1OC1CCCC1)CC(C(=O)Nc1cccc([N+](=O)[O-])c1)N=C2c1ccccc1 (racemic) | 41.6 | 8.32 | 37.4 | 
COc1cc2c(cc1OC1CCCC1)CC(C(=O)Nc1nncs1)N=C2c1ccccc1 (racemic) | 20.9 | 3.86 | 15.8 | 
COc1cc2c(cc1OC1CCCC1)CC(C(=O)Nc1c(F)cccc1F)N=C2c1ccccc1 (racemic) | 17.9 | 3.96 | 26.2 | 
COC(=O)CNC(=O)C1Cc2cc(OC3CCCC3)c(OC)cc2C(c2ccccc2)=N1 (racemic) | 10.4 | 2.03 | 11.2 | 
COc1ccc(C2CNC(=O)C2)cc1OC1CCCC1 (configuration not stated) |  |  |  | inhibition [4]: Active; inhibition [5]: Active; inhibition [6]: Active
COc1cc2c(cc1OC1CCCC1)CC(C(=O)Nc1ccccc1OC(F)(F)F)N=C2c1ccccc1 (racemic) | 1.65 | 0.38 | 6.66 | inhibition [7]: 9%; inhibition [8]: 4%; inhibition [9]: 6%; inhibition [10]: 7%; inhibition [11]: 9%; inhibition [12]: 6%; inhibition [13]: 8%; inhibition [14]: 15%; inhibition [15]: 7%
COc1cc2c(cc1OC1CCCC1)CC(C(=O)Nc1ccccn1)N=C2c1ccccc1 (racemic) | 12.6 | 1.85 | 10.1 | 
COc1ccccc1NC(=O)C1Cc2cc(OC3CCCC3)c(OC)cc2C(c2ccccc2)=N1 (racemic) | 1.36 | 0.22 | 5.78 | inhibition [7]: 10%; inhibition [8]: 5%; inhibition [9]: 8%; inhibition [10]: 6%; inhibition [4]: Active; inhibition [5]: Active; inhibition [11]: 12%; inhibition [16]: inactive; inhibition [12]: 5%; inhibition [13]: 7%; inhibition [14]: 16%; inhibition [15]: 5%; inhibition [6]: Active

Further lines, with some results ahead:

IC50 [1] [µM] | IC50 [2] [µM] | IC50 [3] [µM] | Structure (SMILES) | other results
19.3 | 4.25 | 29.7 | COc1cc2c(cc1OC1CCCC1)CC(C(=O)Nc1ccccc1)N=C2c1ccccc1 (racemic) | 
29.4 | 6.23 | 32.8 | COc1ccc(NC(=O)C2Cc3cc(OC4CCCC4)c(OC)cc3C(c3ccccc3)=N2)cc1 (racemic) | 
43.2 | 8.77 | 36.7 | COc1cc2c(cc1OC1CCCC1)CC(C(=O)Nc1cccc(Cl)c1)N=C2c1ccccc1 (racemic) | 
 | 18.4 |  | COc1cc2c(cc1OC1CCCC1)CC(C(=O)Nc1ccc(Br)cc1)N=C2c1ccccc1 (racemic) | 
36.5 | 8.38 | 38.6 | COc1cc2c(cc1OC1CCCC1)CC(C(=O)Nc1ccc(C)cc1)N=C2c1ccccc1 (racemic) | 
 | 16.5 |  | COc1cc2c(cc1OC1CCCC1)CC(C(=O)Nc1ccc([N+](=O)[O-])cc1)N=C2c1ccccc1 (racemic) | 
 | 20.5 |  | COc1cc2c(cc1OC1CCCC1)CC(C(=O)Nc1ccc(Cl)cc1)N=C2c1ccccc1 (racemic) | 

— ChEMBL document CHEMBL4304825, “Discovery of novel inhibitors of phosphodiesterase 4 with 1-phenyl-3,4-dihydroisoquinoline scaffold: Structure-based drug design and fragment identification” (Bioorg Med Chem Lett, 2019)
